The text below walks through data of patent publication US20250108036A1, “COMPOSITIONS FOR REMOVING SENESCENT CELLS AND USES THEREOF” (LIFECEUTIX CO., LTD., priority 2021, published 2025).

Holding throughout (assay type): cell-based, human
The test system of experiment [1] is foreskin cells in which senescence was induced by doxorubicin. Kind of experiment: CellTiter-Glo cell viability of doxorubicin-induced senescent foreskin cells (Examples 1-2, 10, 11, 13; Tables 4, 63, 65). The note with it: Homo sapiens, 72 h, doxorubicin-induced senescent foreskin cells, CellTiter-Glo, 0 μM = 100, read-out: Survival (%); for viability at 1.1 µM: 1.1 μM test compound; for viability at 10 µM: 10 μM test compound; for viability at 30 µM: 30 μM test compound; for viability at […]: […] test compound. (In general: Cellular ATP, detected with luciferase, serves as a proxy for viable cell number.)
Experimental: After 3 days, cell viability was measured using CellTiter-Glo Luminescent Cell Viability Assay (Promega) or light microscopy.

Experiment [2] relates to HMGN1. The experiment is described as follows: HMGN1 ELISA in culture medium of foreskin cells (Examples 10, 11; Tables 62, 63, 64). The note with it: Homo sapiens, doxorubicin-treated foreskin cells, DMSO = 100; for activity at 30 µM: 30 μM test compound, read-out: HMGN1.
The test system of experiment [3] is HMGN1. Kind of experiment: HMGN1 ELISA in culture medium of A549 cancer cells (Example 12, Table 66). The note with it: Homo sapiens, A549, doxorubicin-induced senescent A549 cells, ELISA, DMSO = 100, read-out: HMGN1 (amount of HMGN1 secreted in the cell culture); for activity at 30 µM: test compound 30 μM; for activity at 90 µM: test compound 90 μM.
Another experiment relates to A549. The experiment is described as follows: CellTiter-Glo cell viability of senescent A549 cancer cells (Example 12, Table 67). The note with it: Homo sapiens, A549, doxorubicin-induced senescent A549 cancer cells, CellTiter-Glo, read-out: Survival (%); for viability at 1.1 µM: 1.1 μM test compound; for viability at 10 µM: 10 μM test compound; for viability at 30 µM: 30 μM test compound; for viability at 90 µM: 90 μM test compound.

With `Cc1c(-c2ccc(-c3ccccc3F)cc2)nc2ccc(F)cc2c1C(=O)O` [LX-1602, Brequinar, reference compound], in experiment [1], the viability at 1.1 µM was determined as 109%, the viability at 10 µM was determined as 57.7%, the viability at 30 µM came to 36.4% and the viability at […] stood at 93.8%. Besides, the activity at 30 µM in the experiment on HMGN1 [2] stood at 228%. For the same molecule, the activity at 30 µM in the experiment with HMGN1 [3] turned out to be 197%. In the experiment with A549, the viability at 1.1 µM worked out at 94.3%, the viability at 10 µM worked out at 96.5% and the viability at 30 µM stood at 39.8%.

With `CC1(C)CC[C@]2(C(=O)O)CC[C@]3(C)C(=CC[C@@H]4[C@@]5(C)CC[C@H](O)C(C)(C)[C@@H]5CC[C@]43C)[C@@H]2C1` [LX-2003, Oleanolic acid], in experiment [1], the viability at 1.1 µM came out at 89.6%, the viability at 10 µM was determined as 34.6%, the viability at 30 µM was determined as 14% and the viability at […] came to 65.8%. For the same molecule, in the experiment with HMGN1 [2], the activity at 30 µM was determined as 298%. The activity at 90 µM in the experiment on HMGN1 [3] came to 218%. Further, in the experiment with A549, the viability at 1.1 µM stood at 97.5%, the viability at 10 µM was 90.6%, the viability at 30 µM amounted to 52.7% and the viability at 90 µM came out at 18.3%.

As to `C[C@@H]1C(=O)C(C#N)=C[C@]2(c3ccccc3)c3c(c(-c4cccnc4)nn3C)CC[C@@H]12` [LX-2407, (5aS,6S,9aR)-1,6-dimethyl-7-oxo-9a-phenyl-3-(pyridin-3-yl)-4,5,5a,6,7,9a-hexahydro-1H-benzo[g]indazole-8-carbonitrile], the viability at 1.1 µM is 15.4% in experiment [1] and 89.6% with A549. In addition, the viability at […] in experiment [1] was 5.9%. Further, the figures for the activity at 30 µM in the experiment on HMGN1 [2] and in the experiment on HMGN1 [3] were 308% and 316%, respectively. Besides, the viability at 10 µM in the experiment on A549 stood at 41.8%.

For the molecule `C=C(C)[C@@H]1CC[C@]2(C(=O)NCC)CC[C@]3(C)[C@H](CCC4[C@@]5(C)C=C(C#N)C(=O)C(C)(C)[C@@H]5CC[C@]43C)[C@@H]12` (stereo partly drawn) [LX-2311], in experiment [1], the viability at 1.1 µM stood at 39.5% and the viability at […] came to 4.1%. Further, the activity at 30 µM with HMGN1 [2] turned out to be 271%. Also, the activity at 30 µM with HMGN1 [3] was 276%. In the experiment with A549, the viability at 1.1 µM is 97.5% and the viability at 10 µM came out at 8.9%.

Take `COC(=O)c1ccc([C@H]2c3ccc(OC)cc3C[C@H](C(=O)OC)N2C(=O)CCl)cc1` [LX-416]: the viability at 1.1 µM is 70.3% in experiment [1] and 91.4% in the experiment with A549. For the same molecule, the viability at […] in experiment [1] stood at 29.1%. Further, the activity at 30 µM is 293% with HMGN1 [2] and 315% in the experiment on HMGN1 [3].

In the case of `C=C(CC)C(=O)c1ccc(OCC(=O)O)c(Cl)c1Cl` [LX-2603, Ethacrynic acid, reference compound], in experiment [1], the viability at 1.1 µM came out at 100%, the viability at 10 µM worked out at 95.8%, the viability at 30 µM was found to be 52.6% and the viability at […] was 103%. The viability at 90 µM in experiment [1] (90 μM test compound) came to 37.8%. The activity at 90 µM with HMGN1 [2] (90 μM test compound) came to 218%. Also, in the experiment on HMGN1 [3], the activity at 90 µM was determined as 245%. In the experiment with A549, the viability at 1.1 µM worked out at 98.7%, the viability at 10 µM stood at 89.1%, the viability at 30 µM turned out to be 41.5% and the viability at 90 µM stood at 1.8%.

Take `COc1cc2c(Nc3ccc(Br)cc3F)ncnc2cc1OCC1CCN(C)CC1` [LX-3302, Vandetanib, reference compound]: in experiment [1], the viability at 1.1 µM is 99.3%, the viability at 10 µM is 6.7% and the viability at […] came to 51.9%. In the experiment on HMGN1 [2], the activity at 30 µM was found to be 268%. Moreover, in the experiment with HMGN1 [3], the activity at 30 µM turned out to be 232%. Also, in the experiment with A549, the viability at 1.1 µM came to 99.5%, the viability at 10 µM was 67.9% and the viability at 30 µM came to 16.4%.

With `C=C(CN(C)C)C(=O)c1ccc(C)cc1C` [LX-923], in experiment [1], the viability at 1.1 µM is 97.7%, the viability at 10 µM turned out to be 75.7%, the viability at 30 µM turned out to be 19.5% and the viability at […] amounted to 94.5%. Moreover, the activity at 30 µM with HMGN1 [2] stood at 271%. The activity at 90 µM in the experiment on HMGN1 [3] came out at 219%. Moreover, in the experiment on A549, the viability at 1.1 µM was determined as 96.7%, the viability at 10 µM came out at 89.4%, the viability at 30 µM turned out to be 81.7% and the viability at 90 µM came out at 15.7%.

Turning to `CCc1ccc(C(=O)C(C)CN2CCCC2)cc1` (stereo not drawn) [LX-1405, Inaperisone, reference compound], in experiment [1], the viability at 1.1 µM was determined as 102%, the viability at 10 µM is 69.6%, the viability at 30 µM worked out at 28.5% and the viability at […] came to 92.7%. Besides, the activity at 30 µM with HMGN1 [2] was 219%. For the same molecule, in the experiment with HMGN1 [3], the activity at 30 µM was 187%. Besides, in the experiment on A549, the viability at 1.1 µM worked out at 97.1%, the viability at 10 µM is 82.8% and the viability at 30 µM came out at 37.4%.

Turning to `CCC(=O)NC[C@]12CCC(C)(C)C[C@H]1[C@H]1C(=O)C=C3[C@@]4(C)C=C(C#N)C(=O)C(C)(C)[C@@H]4CC[C@@]3(C)[C@]1(C)CC2` [LX-2510], in experiment [1], the viability at 1.1 µM was 62.9% and the viability at […] was 11.8%. Besides, the activity at 30 µM in the experiment with HMGN1 [2] turned out to be 288%. In addition, in the experiment on HMGN1 [3], the activity at 30 µM came to 317%. Also, in the experiment on A549, the viability at 1.1 µM is 95.7% and the viability at 10 µM is 2.9%.

Regarding `CC1(C)C(=O)C(C#N)=C[C@]2(C)C3=CC(=O)[C@@H]4[C@@H]5C[C@@](C)(C(=O)NCCc6c[nH]c7ccccc67)CC[C@]5(C)CC[C@@]4(C)[C@]3(C)CCC12` (stereo partly drawn) [LX-2517, Soloxolone tryptamide], the viability at 1.1 µM in experiment [1] came to 0.6%; with A549, 8.4%. The activity at 30 µM stood at 298% in the experiment with HMGN1 [2] and 318% with HMGN1 [3].

For `C[C@H]1[C@H](C)CC[C@]2(C(=O)O)CC[C@]3(C)C(=CC[C@@H]4[C@@]5(C)CC[C@H](O)C(C)(C)[C@@H]5CC[C@]43C)[C@H]12` [LX-2001, Ursolic acid], in experiment [1], the viability at 1.1 µM worked out at 75.2% and the viability at […] was determined as 0.8%. Further, the activity at 30 µM in the experiment on HMGN1 [2] was determined as 328%. Further, the activity at 30 µM in the experiment on HMGN1 [3] came out at 328%. For the same molecule, in the experiment on A549, the viability at 1.1 µM turned out to be 98.3% and the viability at 10 µM was 5.1%.

`C[C@@H]1C(=O)C(C#N)=C[C@]2(C)c3nc(CCO)n(-c4ccccc4)c3CC[C@@H]12` [LX-2409]: in experiment [1], the viability at 1.1 µM was 37.1% and the viability at […] came out at 12.8%. For the same molecule, in the experiment on HMGN1 [2], the activity at 30 µM was found to be 239%. In addition, the activity at 30 µM in the experiment with HMGN1 [3] was determined as 281%. In the experiment with A549, the viability at 1.1 µM worked out at 88.5% and the viability at 10 µM was determined as 26.4%.

In the case of `Cc1c(O)ccc2c1OCC(c1ccc(O)cc1)C2c1ccc(O)cc1` (stereo not drawn) [LX-1605], in experiment [1], the viability at 1.1 µM was determined as 83.4%, the viability at 10 µM is 43.7%, the viability at 30 µM was determined as 11.3% and the viability at […] was 63.8%. The activity at 30 µM with HMGN1 [2] was 284%. Besides, in the experiment with HMGN1 [3], the activity at 30 µM amounted to 338%. Further, in the experiment with A549, the viability at 1.1 µM came out at 91.7%, the viability at 10 µM came out at 41.8% and the viability at 30 µM stood at 6.4%.

For the molecule `C#CC(=O)N1[C@@H](CCCC)Cc2c([nH]c3ncccc23)[C@@H]1c1ccc(F)cc1` [LX-419], the values for the viability at 1.1 µM (in experiment [1]; in the experiment with A549) were 10.3% and 25.1%, respectively. In addition, the activity at 30 µM is 274% in the experiment on HMGN1 [2] and 313% in the experiment with HMGN1 [3].

On to `C[C@H]1[C@H](SCc2ccccc2)O[C@@H]2O[C@@]3(C)CC[C@H]4[C@H](C)CC[C@@H]1[C@@]24OO3` [LX-505], for which the viability at 1.1 µM in experiment [1] was 35.2%; in the experiment with A549, 51.1%. Moreover, in experiment [1], the viability at […] turned out to be 0.4%. The values for the activity at 30 µM in the experiment on HMGN1 [2] and in the experiment with HMGN1 [3] were 299% and 317%, respectively.
